Assay results as given in ChEMBL document CHEMBL5537193, “Multitargeting HDAC Inhibitors Containing a RAS/RAF Protein Interfering Unit” (J Med Chem, 2024).
pIC50: −log10 of the molar value. Activity calls are given as the source filed them. No cut-off for these calls is given here.

Experiments:
[1] = system: PANC-1; experiment: Induction of apoptosis in human PANC-1 cells assessed as increase in cleaved caspase-9 expression level at 2 uM incubated for 24 hrs by Western blot analysis; type: functional, cell-based
[2] = system: PANC-1; experiment: Induction of apoptosis in human PANC-1 cells incubated for 24 hrs by flow cytometric analysis; type: functional, cell-based; settings: dose 1-4 µM
[3] = system: PANC-1; experiment: Induction of apoptosis in human PANC-1 cells assessed as increase in Cytochrome C expression level at 2 uM incubated for 24 hrs by Western blot analysis; type: functional, cell-based
[4] = system: Mus musculus; experiment: In vivo inhibition of MAPK signaling pathway in BALB/c mouse xenografted with human HT-29 cells assessed as inhibition of MEK phosphorylation administered intraperitoneally once every 2 days for 12 times and measured after 24 days by Western blot analysis; type: functional; settings: dose 7.5-15 mg/kg, route ip, time 24.0 day
[5] = system: PANC-1; experiment: Effect on Histone H3 expression in human PANC-1 cells at 2 uM incubated for 24 hrs by Western blot analysis; type: functional, cell-based
[6] = system: PANC-1; experiment: Induction of apoptosis in human PANC-1 cells assessed as increase in cleaved PARP expression level at 2 uM incubated for 24 hrs by Western blot analysis; type: functional, cell-based
[7] = system: Mus musculus; experiment: In vivo inhibition of HDAC3 in BALB/c mouse xenografted with human HT-29 cells assessed as induction of alpha-tubulin acetylation administered intraperitoneally once every 2 days for 12 times and measured after 24 days by Western blot analysis; type: functional; settings: dose 7.5-15 mg/kg, route ip, time 24.0 day
[8] = system: PANC-1; experiment: Effect on RAS protein expression in human PANC-1 cells at 2 uM incubated for 24 hrs by Western blot analysis; type: functional, cell-based
[9] = system: HT-29; experiment: Effect on MEK protein expression in human HT-29 cells at 2 uM incubated for 24 hrs by Western blot analysis; type: functional, cell-based
[10] = system: HT-29; experiment: Effect on alpha-tubulin expression in tumor of BALB/c mouse xenografted with human HT-29 cells at 7.5 to 15 mg/kg, ip administered once every 2 days for 12 times and measured after 24 days by Western blot analysis; type: functional, organism-based; settings: Neoplasm, dose 7.5-15 mg/kg, time 24.0 day
[11] = Metabolic stability in mouse liver microsomes assessed as half-life at 1 uM measured upto 40 mins by LC-MS/MS analysis; type: ADME, Microsome
[12] = system: PANC-1; experiment: Cell cycle arrest in human PANC-1 cells assessed as accumulation of cells at G2-M phase at 2 uM incubated for 24 hrs by PI/RNase staining based flow cytometric analysis; type: functional
[13] = Toxicity in BALB/c nude mouse xenografted with human HT-29 cells assessed as change in body weight at 7.5 to 15 mg/kg, ip administered once daily for 24 days; type: organism-based; settings: in vivo, 576 h, dose 7.5-15 mg/kg, time 24 day
[14] = system: HepG2; experiment: cells; settings: Homo sapiens, HepG2, 72 h
Description: Cytotoxicity against human HepG2 cells assessed as inhibition of cell growth incubated for 72 hrs by MTT assay

[15] = system: PANC-1; experiment: Induction of apoptosis in human PANC-1 cells assessed as increase in Bax expression at 2 uM incubated for 24 hrs by Western blot analysis; type: functional, cell-based
[16] = system: HT-29; experiment: Inhibition of MAPK signaling pathway in human HT-29 cells assessed as inhibition of ERK1/2 phosphorylation at 2 uM incubated for 24 hrs by Western blot analysis; type: cell-based
[17] = system: K562; experiment: cells; settings: Homo sapiens, K562, 72 h
Description: Cytotoxicity against human K562 cells assessed as inhibition of cell growth incubated for 72 hrs by MTT assay

[18] = system: MCF7; experiment: cells; settings: Homo sapiens, MCF7, 72 h
Description: Cytotoxicity against human MCF7 cells assessed as inhibition of cell growth incubated for 72 hrs by MTT assay

[19] = system: HT-29; experiment: Antitumor activity against human HT-29 xenografted in BALB/c nude mouse assessed as tumor growth inhibition at 15 mg/kg, ip administered once every 2 days for 12 times for 24 days relative to control; type: functional; settings: HT-29, 576 h, time 24 day, read-out: TGI
[20] = Elimination rate constant in Sprague-Dawley rat at 15 mg/kg, ip measured after 24 hrs by LC-MS/MS analysis; type: ADME, organism-based; settings: in vivo
[21] = system: HT-29; experiment: Effect on Histone H3 expression in tumor of BALB/c mouse xenografted with human HT-29 cells at 7.5 to 15 mg/kg, ip administered once every 2 days for 12 times and measured after 24 days by Western blot analysis; type: functional, organism-based; settings: Neoplasm, dose 7.5-15 mg/kg, time 24.0 day
[22] = system: PANC-1; experiment: Inhibition of MAPK signaling pathway in human PANC-1 cells assessed as inhibition of ERK1/2 phosphorylation at 2 uM incubated for 24 hrs by Western blot analysis; type: cell-based
[23] = system: A549; experiment: cells; settings: Homo sapiens, A549, 72 h
Description: Cytotoxicity against human A549 cells assessed as inhibition of cell growth incubated for 72 hrs by MTT assay

[24] = system: HT-29; experiment: Effect on ERK1/2 expression in tumor of BALB/c mouse xenografted with human HT-29 cells at 7.5 to 15 mg/kg, ip administered once every 2 days for 12 times and measured after 24 days by Western blot analysis; type: functional, organism-based; settings: Neoplasm, dose 7.5-15 mg/kg, time 24.0 day
[25] = system: PANC-1; experiment: Induction of apoptosis in human PANC-1 cells assessed as increase in cleaved caspase-3 expression level at 2 uM incubated for 24 hrs by Western blot analysis; type: functional, cell-based
[26] = Metabolic stability in rat liver microsomes assessed as intrinsic clearance at 1 uM measured upto 40 mins by LC-MS/MS analysis; type: ADME, Microsome; settings: read-out: CLH
[27] = AUC (0 to t) in Sprague-Dawley rat at 15 mg/kg, ip measured after 24 hrs by LC-MS/MS analysis; type: ADME, organism-based; settings: in vivo
[28] = system: HT-29; experiment: Antitumor activity against human HT-29 cells xenografted in BALB/c nude mouse assessed as tumor growth inhibition at 15 mg/kg, ip administered once a day for 24 days relative to control; type: functional; settings: HT-29, 576 h, time 24 day, read-out: TGI
[29] = system: HT-29; experiment: Effect on MEK expression in tumor of BALB/c mouse xenografted with human HT-29 cells at 7.5 to 15 mg/kg, ip administered once every 2 days for 12 times and measured after 24 days by Western blot analysis; type: functional, organism-based; settings: Neoplasm, dose 7.5-15 mg/kg, time 24.0 day
[30] = system: HT-29; experiment: Effect on RAS expression in tumor of BALB/c mouse xenografted with human HT-29 cells at 7.5 to 15 mg/kg, ip administered once every 2 days for 12 times and measured after 24 days by Western blot analysis; type: functional, organism-based; settings: Neoplasm, dose 7.5-15 mg/kg, time 24.0 day
[31] = Toxicity in BALB/c nude mouse xenografted with human HT-29 cells assessed as change in body weight at 7.5 to 15 mg/kg, ip administered once every 2 days for 12 times for 24 days; type: organism-based; settings: in vivo, 576 h, dose 7.5-15 mg/kg, time 24 day
[32] = system: Mus musculus; experiment: In vivo inhibition of MAPK signaling pathway in BALB/c mouse xenografted with human HT-29 cells assessed as inhibition of c-RAF phosphorylation at Ser338 residue administered intraperitoneally once every 2 days for 12 times and measured after 24 days by Western blot analysis; type: functional; settings: dose 7.5-15 mg/kg, route ip, time 24.0 day
[33] = Toxicity in BALB/c nude mouse xenografted with human HT-29 cells assessed as change in main organs at 7.5 to 15 mg/kg, ip administered once every 2 days for 12 times for 24 days by H&E staining based analysis; type: organism-based; settings: in vivo, 576 h, dose 7.5-15 mg/kg, time 24 day
[34] = AUC (0 to infinity) in Sprague-Dawley rat at 15 mg/kg, ip measured after 24 hrs by LC-MS/MS analysis; type: ADME, organism-based; settings: in vivo
[35] = Toxicity in BALB/c nude mouse xenografted with human HT-29 cells assessed as change in heart histopathology at 10 to 15 mg/kg, ip administered once daily for 24 days by H&E staining based analysis; type: organism-based; settings: in vivo, 576 h, dose 10-15 mg/kg, time 24 day
[36] = system: PANC-1; experiment: Effect on alpha-tubulin expression in human PANC-1 cells at 2 uM incubated for 24 hrs by Western blot analysis; type: functional, cell-based

half-life at 1 µM [11]: 28.6 min | pIC50 [14]: 6.00 | pIC50 [17]: 7.70 | pIC50 [18]: 6.62 | k el at 24 h [20]: 0.000252 s⁻¹ | pIC50 [23]: 7.05 | CLint scaled at 1 µM [26]: 450 mL/min/kg | AUC(0-t) at 24 h [27]: 5190 ng·h/mL | AUC(0-inf) [34]: 5200 ng·h/mL
Structure (SMILES): COc1cc(OC)c(/C=C/S(=O)(=O)Cc2ccc(OC)c(NCC(=O)NO)c2)c(OC)c1
Activity [1]: Active | Activity [2]: Dose-Dependent Effect | Activity [3]: Active | inhibition [4]: Dose-Dependent Effect | Activity [5]: inactive | Activity [6]: Active | inhibition [7]: Dose-Dependent Effect | Activity [8]: inactive | Activity [9]: inactive | Activity [10]: inactive | Activity [12]: Active | Activity [13]: Non-Toxic | Activity [15]: Active | inhibition [16]: Active | inhibition in vivo at 15 mg/kg [19]: 75.2% | Activity [21]: inactive | inhibition [22]: Active | Activity [24]: inactive | Activity [25]: Active | inhibition in vivo at 15 mg/kg [28]: 86.7% | Activity [29]: inactive | Activity [30]: inactive | Activity [31]: Non-Toxic | inhibition [32]: Dose-Dependent Effect | Activity [33]: Non-Toxic | Activity [35]: Non-Toxic | Activity [36]: inactive
